Calls of active or inactive are those of the source. The rule behind the calls is not given here.

Data set [1] is described as follows: Cytotoxicity against PMA-differentiated human U937 macrophages assessed as cell viability at 80 uM after 24 hrs by MTT assay relative to untreated control. The data set is classed as cell-based, U-937. To be noted: read-out: Activity.
Data set [2] in a line: Cytotoxicity against PMA-differentiated human U937 macrophages assessed as cell viability at 20 uM after 24 hrs by MTT assay relative to untreated control. The data set is classed as cell-based, U-937. To be noted: read-out: Activity.
The subject of data set [3] is U-937. As to the kind of experiment: Antiinflammatory activity in PMA-differentiated human U937 cells assessed as inhibition of LPS-induced TNFalpha secretion at 20 uM preincubated for 2 hrs followed by LPS stimulation and measured after 24 hrs post LPS challenge by ELISA relative to control. The data set is classed as functional.
The target of data set [4] is Toll-like receptor 4 (Homo sapiens) (UniProt O00206). As to the kind of experiment: Inhibition of TLR4 in human U937-3xkappaB-LUC cells assessed as inhibition of Aggregatibacter actinomycetemcomitans LPS-induced NF-kappaB activation at 50 uM preincubated for 30 mins followed by LPS stimulation and measured after 6 hrs post LPS challenge by Bright-Glo luciferase reporter gene assay relative to control.
Sequence of Toll-like receptor 4 (Homo sapiens) (O00206 whole entry): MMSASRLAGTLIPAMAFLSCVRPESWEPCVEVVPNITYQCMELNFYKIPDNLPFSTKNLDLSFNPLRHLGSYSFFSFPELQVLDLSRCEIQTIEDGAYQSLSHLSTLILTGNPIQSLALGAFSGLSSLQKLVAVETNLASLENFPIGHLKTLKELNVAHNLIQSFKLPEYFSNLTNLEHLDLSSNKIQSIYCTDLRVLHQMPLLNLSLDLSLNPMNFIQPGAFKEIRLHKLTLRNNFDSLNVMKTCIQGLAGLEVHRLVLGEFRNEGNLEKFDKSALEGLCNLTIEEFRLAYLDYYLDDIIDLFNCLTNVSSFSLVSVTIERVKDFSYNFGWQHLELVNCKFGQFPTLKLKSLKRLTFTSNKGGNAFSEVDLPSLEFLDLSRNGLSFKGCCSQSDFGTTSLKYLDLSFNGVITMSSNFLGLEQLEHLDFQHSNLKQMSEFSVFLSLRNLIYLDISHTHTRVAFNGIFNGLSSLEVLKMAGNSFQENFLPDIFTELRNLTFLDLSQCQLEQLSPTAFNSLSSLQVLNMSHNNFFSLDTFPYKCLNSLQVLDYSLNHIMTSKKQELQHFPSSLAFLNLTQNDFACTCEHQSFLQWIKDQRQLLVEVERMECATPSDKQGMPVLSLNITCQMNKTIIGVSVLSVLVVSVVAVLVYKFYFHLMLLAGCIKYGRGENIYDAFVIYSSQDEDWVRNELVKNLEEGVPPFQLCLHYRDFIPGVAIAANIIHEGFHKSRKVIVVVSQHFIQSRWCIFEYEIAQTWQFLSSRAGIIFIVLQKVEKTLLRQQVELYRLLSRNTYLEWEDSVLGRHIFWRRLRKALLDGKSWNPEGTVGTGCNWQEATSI

Data set [5] shares this target. As to the kind of experiment: Inhibition of TLR4 in human U937-3xkappaB-LUC cells assessed as inhibition of Aggregatibacter actinomycetemcomitans LPS-induced NF-kappaB activation at 10 uM preincubated for 30 mins followed by LPS stimulation and measured after 6 hrs post LPS challenge by Bright-Glo luciferase reporter gene assay relative to control.
Data set [6] concerns U-937. As to the kind of experiment: Antiinflammatory activity in PMA-differentiated human U937 cells assessed as inhibition of LPS-induced TNFalpha secretion at 80 uM preincubated for 2 hrs followed by LPS stimulation and measured after 24 hrs post LPS challenge by ELISA relative to control. The data set is classed as functional.
The nature of data set [7]: Cytotoxicity against PMA-differentiated human U937 macrophages assessed as cell viability at 10 uM after 24 hrs by MTT assay relative to untreated control. The conditions noted are these: read-out: Activity. The data set is classed as cell-based, U-937.
A short description of data set [8]: Cytotoxicity against PMA-differentiated human U937 macrophages assessed as cell viability at 40 uM after 24 hrs by MTT assay relative to untreated control. The conditions noted are these: read-out: Activity. The data set is classed as cell-based, U-937.
For data set [9], the system named is U-937. As to the kind of experiment: Antiinflammatory activity in PMA-differentiated human U937 cells assessed as inhibition of LPS-induced TNFalpha secretion at 40 uM preincubated for 2 hrs followed by LPS stimulation and measured after 24 hrs post LPS challenge by ELISA relative to control. The data set is classed as functional.
Data set [10] deals with Toll-like receptor 4 (Homo sapiens) (UniProt O00206). The experiment in a line: Inhibition of TLR4 in human U937-3xkappaB-LUC cells assessed as inhibition of Aggregatibacter actinomycetemcomitans LPS-induced NF-kappaB activation at 5 uM preincubated for 30 mins followed by LPS stimulation and measured after 6 hrs post LPS challenge by Bright-Glo luciferase reporter gene assay relative to control.

For data set [11] the target is unchanged. As to the kind of experiment: Inhibition of TLR4 in human U937-3xkappaB-LUC cells assessed as inhibition of Aggregatibacter actinomycetemcomitans LPS-induced NF-kappaB activation at 20 uM preincubated for 30 mins followed by LPS stimulation and measured after 6 hrs post LPS challenge by Bright-Glo luciferase reporter gene assay relative to control.
Data set [12] concerns U-937. As to the kind of experiment: Antiinflammatory activity in PMA-differentiated human U937 cells assessed as inhibition of LPS-induced TNFalpha secretion at 10 uM preincubated for 2 hrs followed by LPS stimulation and measured after 24 hrs post LPS challenge by ELISA relative to control. The data set is classed as functional.
Data set [13] concerns the target T1, Peroxisome proliferator-activated receptor gamma (Homo sapiens) (UniProt P37231).
T1 sequence (whole entry): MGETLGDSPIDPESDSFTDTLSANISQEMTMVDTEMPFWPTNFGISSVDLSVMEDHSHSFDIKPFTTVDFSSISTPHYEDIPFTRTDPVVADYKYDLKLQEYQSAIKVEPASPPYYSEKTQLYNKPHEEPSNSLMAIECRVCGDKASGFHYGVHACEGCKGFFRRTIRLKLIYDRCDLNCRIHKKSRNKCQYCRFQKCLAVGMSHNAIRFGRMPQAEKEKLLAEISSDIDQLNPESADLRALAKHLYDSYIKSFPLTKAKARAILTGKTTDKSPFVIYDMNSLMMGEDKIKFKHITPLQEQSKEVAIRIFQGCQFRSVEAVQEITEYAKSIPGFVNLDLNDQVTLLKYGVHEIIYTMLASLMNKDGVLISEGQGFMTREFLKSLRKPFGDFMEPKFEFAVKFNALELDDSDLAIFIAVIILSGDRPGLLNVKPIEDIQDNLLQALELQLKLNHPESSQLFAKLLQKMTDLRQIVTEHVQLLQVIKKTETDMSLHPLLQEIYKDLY
The experiment in a line: Binding affinity to recombinant human PPARgamma LBD at 40 uM by TR-FRET based green polar-screen PPAR competitor assay.

Data set [14] has as its system U-937. As to the kind of experiment: Antiinflammatory activity in human U937 cells assessed as inhibition of LPS-induced IL-8 production preincubated for 2 hrs followed by LPS stimulation and measured after 24 hrs post LPS challenge by ELISA. The data set is classed as functional.

In the case of `CCCCCc1c(Oc2cc3c(cc2OC)C(CCCC)(OC)OC3=O)c(O)cc(O)c1C(=O)O` (configuration not stated), the viability at 24 h, 80 µM in data set [1] came out at 52%. Moreover, the viability at 24 h, 20 µM in data set [2] stood at 131%. Moreover, the inhibition at 20 µM with U-937 [3] was 0%. The inhibition in [4] came to 84%; in data set [5], 39%; in data set [10] it was 27%; in [11] it was 63%. Besides, the inhibition at 80 µM in the data set with U-937 [6] amounted to 100%. For the same compound, in data set [7], the viability at 24 h, 10 µM came to 126%. Further, the viability at 24 h, 40 µM in data set [8] is 121%. Moreover, the inhibition at 40 µM in the data set with U-937 [9] stood at 3%. Further, in the data set with U-937 [12], the inhibition at 10 µM came to 0%.

On to `COC(=O)c1c(C)cc(O)c(C)c1O` [ATRARIC ACID], for which, in data set [1], the viability at 24 h, 80 µM came to 125%. For the same compound, in data set [2], the viability at 24 h, 20 µM stood at 118%. Moreover, the inhibition at 20 µM in the data set with U-937 [3] was 0%. Further, the inhibition in data set [4] was 25%; in [5], 19%; in data set [10] it was 27%; in data set [11], 36%. For the same compound, the inhibition at 80 µM with U-937 [6] is 0%. For the same compound, the viability at 24 h, 10 µM in data set [7] was found to be 112%. The viability at 24 h, 40 µM in data set [8] is 116%. Further, the inhibition at 40 µM with U-937 [9] was determined as 0%. In [13], the outcome was inactive. In addition, the inhibition at 10 µM in the data set on U-937 [12] was 0%.

With `COC(=O)c1c(C)cc(O)c(C=O)c1O` [METHYL HAEMATOMMATE], the viability at 24 h, 80 µM in data set [1] worked out at 82%. For the same compound, the viability at 24 h, 20 µM in data set [2] amounted to 102%. Further, the inhibition entry is “Dose-dependent effect” with U-937 [14]; 67% in [4]; 24% in data set [5]; 17% in data set [10]; 38% in data set [11]. In the data set with U-937 [3], the inhibition at 20 µM stood at 3%. For the same compound, the inhibition at 80 µM in the data set with U-937 [6] was 80%. Further, the viability at 24 h, 10 µM in [7] was 119%. In addition, in data set [8], the viability at 24 h, 40 µM stood at 102%. Besides, the inhibition at 40 µM in the data set with U-937 [9] is 41%. Further, the inhibition at 10 µM in the data set on U-937 [12] came to 0%.

`CCCCCc1cc(O)cc(O)c1Oc1cc(OC)cc2c1C(=O)OC2(O)CCCC` (configuration not stated): the viability at 24 h, 80 µM in data set [1] was 114%. Further, the viability at 24 h, 20 µM in data set [2] turned out to be 124%. In addition, in the data set on U-937 [3], the inhibition at 20 µM came to 0%. Besides, the inhibition was found to be 36% in data set [4], 29% in [5], 26% in [10] and 48% in [11]. In addition, the inhibition at 80 µM in the data set on U-937 [6] worked out at 7%. The viability at 24 h, 10 µM in [7] was 118%. In data set [8], the viability at 24 h, 40 µM is 122%. In the data set on U-937 [9], the inhibition at 40 µM came out at 0%. Also, the result in data set [13] was Active. For the same compound, the inhibition at 10 µM in the data set on U-937 [12] is 0%.

Regarding `CCCCCc1cc(O)cc(O)c1Oc1cc2c(cc1OC)C(CCCC)(OC)OC2=O` (configuration not stated), in [1], the viability at 24 h, 80 µM worked out at 24%. For the same compound, the viability at 24 h, 20 µM in data set [2] was determined as 96%. In the data set on U-937 [3], the inhibition at 20 µM was determined as 0%. In addition, the inhibition in [4] turned out to be 34%; in data set [5], 15%; in [10] it was 12%; in data set [11], 29%. Moreover, the inhibition at 80 µM in the data set on U-937 [6] worked out at 100%. The viability at 24 h, 10 µM in data set [7] stood at 116%. In addition, the viability at 24 h, 40 µM in [8] was determined as 87%. Moreover, in the data set with U-937 [9], the inhibition at 40 µM was 0%. Further, in the data set with U-937 [12], the inhibition at 10 µM came out at 0%.

Take `CN(CCOc1ccc(CC2SC(=O)NC2=O)cc1)c1ccccn1` (configuration not stated): the result in data set [13] was Active.

In the case of `CCCCCc1cc(O)cc(O)c1Oc1cc(OC)cc(C(=O)CCCC)c1C(=O)OC`, in [1], the viability at 24 h, 80 µM worked out at 66%. Also, the viability at 24 h, 20 µM in [2] is 105%. Besides, the inhibition at 20 µM with U-937 [3] was 0%. Besides, the inhibition in data set [4] turned out to be 52%; in [5], 39%; in data set [10], 23%; in data set [11], 52%. Also, the inhibition at 80 µM in the data set with U-937 [6] was found to be 55%. Besides, the viability at 24 h, 10 µM in [7] came out at 119%. For the same compound, the viability at 24 h, 40 µM in data set [8] came out at 85%. The inhibition at 40 µM in the data set on U-937 [9] was 0%. Moreover, the result in data set [13] was Active. Also, the inhibition at 10 µM in the data set on U-937 [12] is 0%.

Values taken from ChEMBL document CHEMBL4261648, “Lobaric acid and pseudodepsidones inhibit NF-κB signaling pathway by activation of PPAR-γ” (Bioorg Med Chem, 2018).
